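Results reflect a 48-hour exposure of cells in 96-well plates to compound at five concentrations. GI50 is the concentration that inhibits growth by half. Definition used: TGI = concentration required for complete inhibition of growth.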
Key:
Experiment in all cases: inhibition of tumour cell growth, NCI panel, 48 h
PC-3 prostate = system: PC-3 prostate
CCRF-CEM leukemia = system: CCRF-CEM leukemia
SW-620 colon = system: SW-620 colon
NCI-H522 lung = system: NCI-H522 lung
SNB-75 CNS = system: SNB-75 CNS
NCI-H226 lung = system: NCI-H226 lung
HOP-92 NSCLC = system: HOP-92 NSCLC
SK-OV-3 ovarian = system: SK-OV-3 ovarian
HS 578T breast = system: HS 578T breast
OVCAR-8 ovarian = system: OVCAR-8 ovarian
DU-145 prostate = system: DU-145 prostate
CAKI-1 renal = system: CAKI-1 renal
OVCAR-5 ovarian = system: OVCAR-5 ovarian
UO-31 renal = system: UO-31 renal
NCI/ADR-RES ovarian = system: NCI/ADR-RES ovarian
UACC-62 melanoma = system: UACC-62 melanoma
U251 CNS = system: U251 CNS
HOP-62 NSCLC = system: HOP-62 NSCLC
MDA-MB-435 = system: MDA-MB-435
RPMI-8226 leukemia = system: RPMI-8226 leukemia
IGROV1 ovarian = system: IGROV1 ovarian
SK-MEL-28 melanoma = system: SK-MEL-28 melanoma
HCT-15 colon = system: HCT-15 colon
M14 melanoma = system: M14 melanoma
MCF7 breast = system: MCF7 breast
COLO 205 colon = system: COLO 205 colon
A498 renal = system: A498 renal
SN12C renal = system: SN12C renal
NCI-H460 lung = system: NCI-H460 lung
T-47D breast = system: T-47D breast
RXF 393 renal = system: RXF 393 renal
BT-549 breast = system: BT-549 breast
SF-539 CNS = system: SF-539 CNS
786-0 renal = system: 786-0 renal
TK-10 renal = system: TK-10 renal
HL-60(TB) leukemia = system: HL-60(TB) leukemia
SNB-19 CNS = system: SNB-19 CNS
MOLT-4 leukemia = system: MOLT-4 leukemia
HCC-2998 colon = system: HCC-2998 colon
OVCAR-4 ovarian = system: OVCAR-4 ovarian
KM12 colon = system: KM12 colon
HCT-116 colon = system: HCT-116 colon
HT29 colon = system: HT29 colon
MDA-MB-231 breast = system: MDA-MB-231 breast
A549 NSCLC = system: A549 NSCLC
SR leukemia = system: SR leukemia
MALME-3M melanoma = system: MALME-3M melanoma
ACHN renal = system: ACHN renal
SK-MEL-2 melanoma = system: SK-MEL-2 melanoma
SF-268 CNS = system: SF-268 CNS
SK-MEL-5 melanoma = system: SK-MEL-5 melanoma
SF-295 CNS = system: SF-295 CNS
UACC-257 melanoma = system: UACC-257 melanoma
K-562 leukemia = system: K-562 leukemia
EKVX NSCLC = system: EKVX NSCLC
LOX IMVI melanoma = system: LOX IMVI melanoma

## CNC(=O)c1cc(N2CCc3cc(NC(=O)Nc4ccc(N5CCOCC5)c(C(F)(F)F)c4)ccc32)ccn1
PC-3 prostate
  GI50: 1170 nM
  TGI: > 33300 nM
CCRF-CEM leukemia
  GI50: 1470 nM
  TGI: > 33300 nM
SW-620 colon
  GI50: 2340 nM
  TGI: > 33300 nM
NCI-H522 lung
  GI50: 1290 nM
  TGI: 16300 nM
SNB-75 CNS
  GI50: 1140 nM
  TGI: 13800 nM
NCI-H226 lung
  GI50: 1330 nM
  TGI: > 33300 nM
HOP-92 NSCLC
  GI50: 899 nM
  TGI: 5540 nM
SK-OV-3 ovarian
  GI50: 7160 nM
  TGI: > 33300 nM
HS 578T breast
  GI50: 779 nM
  TGI: 2940 nM
OVCAR-8 ovarian
  GI50: 1800 nM
  TGI: > 33300 nM
DU-145 prostate
  GI50: 3040 nM
  TGI: > 33300 nM
CAKI-1 renal
  GI50: 3840 nM
  TGI: > 33300 nM
OVCAR-5 ovarian
  GI50: 4950 nM
  TGI: > 33300 nM
UO-31 renal
  GI50: 1210 nM
  TGI: 25100 nM
NCI/ADR-RES ovarian
  GI50: 2160 nM
  TGI: > 33300 nM
UACC-62 melanoma
  GI50: 776 nM
  TGI: 1970 nM
U251 CNS
  GI50: 1320 nM
  TGI: > 33300 nM
HOP-62 NSCLC
  GI50: 2560 nM
  TGI: 25000 nM
MDA-MB-435
  GI50: 2710 nM
  TGI: > 33300 nM
RPMI-8226 leukemia
  GI50: 614 nM
  TGI: 2500 nM
IGROV1 ovarian
  GI50: 1430 nM
  TGI: > 33300 nM
SK-MEL-28 melanoma
  GI50: 3520 nM
  TGI: > 33300 nM
HCT-15 colon
  GI50: 1170 nM
  TGI: > 33300 nM
M14 melanoma
  GI50: 1410 nM
  TGI: 25000 nM
MCF7 breast
  GI50: 1560 nM
  TGI: > 33300 nM
COLO 205 colon
  GI50: 1150 nM
  TGI: 22000 nM
A498 renal
  GI50: 1690 nM
  TGI: 25100 nM
SN12C renal
  GI50: 1260 nM
  TGI: > 33300 nM
NCI-H460 lung
  GI50: 1210 nM
  TGI: 27300 nM
T-47D breast
  GI50: 908 nM
  TGI: 9030 nM
RXF 393 renal
  GI50: 775 nM
  TGI: 2110 nM
BT-549 breast
  GI50: 1040 nM
  TGI: 2750 nM
SF-539 CNS
  GI50: 600 nM
  TGI: > 33300 nM
786-0 renal
  GI50: 1440 nM
  TGI: 18900 nM
TK-10 renal
  GI50: 11300 nM
  TGI: > 33300 nM
HL-60(TB) leukemia
  GI50: 904 nM
  TGI: 5500 nM
SNB-19 CNS
  GI50: 3870 nM
  TGI: > 33300 nM
MOLT-4 leukemia
  GI50: 1210 nM
  TGI: 31100 nM
HCC-2998 colon
  GI50: 2510 nM
  TGI: > 33300 nM
OVCAR-4 ovarian
  GI50: 1690 nM
  TGI: > 33300 nM
KM12 colon
  GI50: 293 nM
  TGI: > 33300 nM
HCT-116 colon
  GI50: 1170 nM
  TGI: 10500 nM
HT29 colon
  GI50: 1640 nM
  TGI: > 33300 nM
MDA-MB-231 breast
  GI50: 2470 nM
  TGI: > 33300 nM
A549 NSCLC
  GI50: 1620 nM
  TGI: > 33300 nM
SR leukemia
  GI50: 946 nM
  TGI: > 33300 nM
MALME-3M melanoma
  GI50: 2130 nM
  TGI: > 33300 nM
ACHN renal
  GI50: 1900 nM
  TGI: > 33300 nM
SK-MEL-2 melanoma
  GI50: 1130 nM
  TGI: 5730 nM
SF-268 CNS
  GI50: 5700 nM
  TGI: > 33300 nM
SK-MEL-5 melanoma
  GI50: 1100 nM
  TGI: 4720 nM
SF-295 CNS
  GI50: 689 nM
  TGI: 2550 nM
UACC-257 melanoma
  GI50: 3230 nM
  TGI: > 33300 nM
K-562 leukemia
  GI50: 996 nM
  TGI: > 33300 nM
EKVX NSCLC
  GI50: 4160 nM
  TGI: > 33300 nM
LOX IMVI melanoma
  GI50: 1510 nM
  TGI: 17900 nM

From PubChem BioAssay (NCI)
